Experimental data: patent US7250434B2, “CCK-1 receptor modulators” (Janssen Pharmaceutica N.V., priority 2003, dated 2007)
pKi: −log10 of the molar value.

Each compound was assayed against T1, CCK-1 receptor (Homo sapiens, UniProt P32238) (assay: [125I]-BH-CCK-8S competition binding to membranes of CHO-K1 cells stably transfected with the CCK-1 receptor). Conditions: membranes of CCK-1 transfected CHO-K1 cells; 20 pM [125I]-BH-CCK-8S; 0.3 μM PD-134,308 present; 60 min at 21±3° C.; Cheng-Prusoff.
T1 construct: expressed in transfected cells; membranes
T1 sequence (P32238 1-428): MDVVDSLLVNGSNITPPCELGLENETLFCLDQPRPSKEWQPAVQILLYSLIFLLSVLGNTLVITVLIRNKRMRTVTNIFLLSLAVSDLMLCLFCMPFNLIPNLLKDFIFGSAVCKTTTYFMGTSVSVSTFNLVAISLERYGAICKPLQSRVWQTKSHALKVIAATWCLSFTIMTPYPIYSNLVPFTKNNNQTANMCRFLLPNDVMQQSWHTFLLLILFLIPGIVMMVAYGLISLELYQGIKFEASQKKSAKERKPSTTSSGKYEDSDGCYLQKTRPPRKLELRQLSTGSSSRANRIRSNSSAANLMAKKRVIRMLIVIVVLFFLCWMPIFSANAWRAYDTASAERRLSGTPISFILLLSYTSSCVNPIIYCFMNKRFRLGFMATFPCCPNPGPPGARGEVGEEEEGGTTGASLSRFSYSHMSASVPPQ
Description: CHO-K1 cells that had undergone stable transfection with the CCK-1 receptor were grown in DMEM supplemented with L-glutamine (2 mM), penicillin (50 units/mL) and streptomycin (50 μg/mL). Cells were cultured under continuous G418 selection (2 mM) and were harvested using a rubber cell scraper. CHO-K1 cells were sub-cultured a maximum of ten times before being reseeded from the original stocks.
Membranes were prepared from the stably transfected CHO-K1 cells. Frozen cell pellets (−40° C.) were thawed in 14 mL of buffer A (10 mM HEPES, 130 mM NaCl, 4.7 mM KCl, 5 mM MgCl, 1 mM EGTA and 15.4 mg/100 mL bacitracin at pH 7.2), adapted from Harper et al. (Br. J. Pharmacol. 1996, 118:1717-1726). The thawed pellets were homogenized using a Polytron PT-10 (7×1 s). The homogenates were centrifuged for 5 min at 1500 rpm (600×g), and the resulting pellets were discarded. The supernatants were re-centrifuged in order to collect the receptor-membrane pellets (25 min 15,000 rpm; 39,800×g), which were re-suspended in buffer A.
All assays were conducted in 96-well plates (GF/B millipore filter plates) using buffer A, with 0.3 μM PD-134,308, for the dilutions. The CCK-2 receptor ligand was included to eliminate the contribution of this receptor subtype to the binding. For the optimal cell number determination experiments 20 pM [^125I]-BH-CCK-8S (50 μL 60 pM solution) was incubated with a range of cell concentrations (2.5×105 to 12.5×10^5 cells/well) in a total volume of 150 μL. Total binding of [^125I]-BH-CCK-8S was determined in the presence of 15 μL of buffer A. Non-specific binding of [^125I]-BH-CCK-8S was determined in the presence of 15 μL of 100 μM 2-naphthalenesulphonyl L-aspartyl-(2-phenethyl)amide (2-NAP: see R. A. Hull et al. Br. J. Pharmacol. 1993, 108:734-740), a CCK-1 receptor selective antagonist that is structurally unrelated to the radioligand [^125I]-BH-CCK-8S. The assay preparation was incubated for 1 h at 21±3° C., and then the assay was terminated upon rapid filtration of the preparation under reduced pressure. The loaded filters were washed three times using undiluted PBS (100 μL), and then the residues were transferred to 5 mL scintillation tubes. Bound radioactivity was determined using a gamma counter (count time=1 min). From these experiments a cell concentration of 1 pellet in 40 mL of buffer (2.5×10^6 cells/mL) was chosen for use in other assays (below). To validate the radioligand concentration and incubation time for the assay, saturation and kinetic binding studies were also conducted (see M. F. Morton, The Pharmacological Characterization of Cholecystokinin Receptors in the Human Gastrointestinal Tract. PhD Thesis, University of London, 2000). The affinity of novel compounds was estimated by incubating membrane preparations with 15 μL of competing ligand (0.1 pM-1 mM) for 60 min at 21±3° C. The assay was then terminated according to the procedure outlined above.
The pKi values were determined using the equation of Y.-C. Cheng and W. H. Prusoff (Biochem. Pharmacol. 1973, 22(23):3099-3108):
[formula] To circumvent problems associated with computer-assisted data analysis of compounds with low affinity, the data obtained in the current study were weighted according to a method described by Morton (2000). In brief, 100% and 0% specific binding were defined independently using total binding and binding obtained in the presence of a high concentration of the reference antagonist, 2-NAP.

Going from `Cc1cccc(/C(=C\c2nc(-c3cc(Cl)ccc3Cl)c(-c3ccc4c(c3)OCO4)[nH]2)C(=O)O)c1` [Example 19, (E)-3-[5-Benzo[1,3]dioxol-5-yl-4-(2,5-dichloro-phenyl)-1H-imidazol-2-yl]-2-m-tolyl-acrylic acid] to `O=C(O)/C(=C\c1nc(-c2cc(Cl)ccc2Cl)c(-c2ccc3c(c2)OCO3)[nH]1)c1cccc(C(F)(F)F)c1` [Example 7, (Z)-3-[5-Benzo[1,3]dioxol-5-yl-4-(2,5-dichloro-phenyl)-1H-imidazol-2-yl]-2-(3-trifluoromethyl-phenyl)-acrylic acid], the pKi rises from 7.80 to 8.30 (0.50 log units). The second binds more tightly here.

Compared with `O=C(O)/C(=C\c1nc(-c2cc(Cl)ccc2Cl)c(-c2ccc3c(c2)OCO3)[nH]1)c1ccc(Cl)cc1` [Example 5, (Z)-3-[5-Benzo[1,3]dioxol-5-yl-4-(2,5-dichloro-phenyl)-1H-imidazol-2-yl]-2-(4-chloro-phenyl)-acrylic acid], `COc1ccc(-c2[nH]c(/C=C(/C(=O)O)c3cccc(C)c3)nc2-c2ccc(Cl)c(Cl)c2)cc1` [Example 17, (E)-3-[4-(3,4-Dichloro-phenyl)-5-(4-methoxy-phenyl)-1H-imidazol-2-yl]-2-m-tolyl-acrylic acid] is 1.40 log units lower in pKi: 8.50 for the first, 7.10 for the second.

First: Cc1ccc(-c2nc(CC(C(=O)O)c3cccc(C)c3)[nH]c2-c2ccc(C)cc2)cc1 (stereo not shown) [Example 30, 3-(4,5-Di-p-tolyl-1H-imidazol-2-yl)-2-m-tolyl-propionic acid]
Second: COc1ccc(-c2[nH]c(CC(C(=O)O)c3ccc(C)cc3)nc2-c2ccc(Cl)c(Cl)c2)cc1 (stereo not shown) [Example 29, 3-[4-(3,4-Dichloro-phenyl)-5-(4-methoxy-phenyl)-1H-imidazol-2-yl]-2-p-tolyl-propionic acid]
The pKi of the first is 0.80 log units higher: 7.70 for the first, 6.90 for the second.

Going from `COc1ccc(-c2[nH]c(/C=C(\C(=O)O)c3cccc(C(F)(F)F)c3)nc2-c2ccc(Cl)c(Cl)c2)cc1` [Example 10, (Z)-3-[4-(3,4-Dichloro-phenyl)-5-(4-methoxy-phenyl)-1H-imidazol-2-yl]-2-(3-trifluoromethyl-phenyl)-acrylic acid] to `COc1ccc(-c2[nH]c(CC(C(=O)O)c3cccc(C(F)(F)F)c3)nc2-c2ccc(Cl)c(Cl)c2)cc1` (stereo not shown) [Example 27, 3-[4-(3,4-Dichloro-phenyl)-5-(4-methoxy-phenyl)-1H-imidazol-2-yl]-2-(3-trifluoromethyl-phenyl)-propionic acid], the pKi falls from 8.00 to 7.30 (0.70 log units).

Compared with `COc1ccc(-c2[nH]c(CC(C(=O)O)c3cccc(Cl)c3)nc2-c2ccc(Cl)c(Cl)c2)cc1` (stereo not shown) [Example 25, 2-(3-Chloro-phenyl)-3-[4-(3,4-dichloro-phenyl)-5-(4-methoxy-phenyl)-1H-imidazol-2-yl]-propionic acid], `COc1cccc(-c2nc(CC(C(=O)O)c3cccc4ccccc34)[nH]c2-c2cccc(OC)c2)c1` (stereo not shown) [Example 33, 3-[4,5-Bis-(3-methoxy-phenyl)-1H-imidazol-2-yl]-2-naphthalen-1-yl-propionic acid] is 1.90 log units lower in pKi: 7.50 for the first, 5.60 for the second. The first binds more tightly here.
